Experimental findings from PubChem BioAssay (NCI) are described below.

Assay in all cases: DTP human tumour cell line panel, 48 h
Assay [1] relates to 786-0 renal.
In assay [2] the test system is HT29 colon.
Assay [3] has as its system NCI/ADR-RES ovarian.
In assay [4] the test system is OVCAR-4 ovarian.
Assay [5] concerns SK-MEL-5 melanoma.
Assay [6] deals with TK-10 renal.
Assay [7] has as its system UACC-257 melanoma.
Assay [8] concerns UACC-62 melanoma.
The subject of assay [9] is UO-31 renal.
Assay [10] relates to MALME-3M melanoma.

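Compound exposure: 48 hours, 5 concentrations, 96-well plates. GI50: concentration for 50% inhibition of growth. TGI is the concentration that stops growth completely.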 Some results are limits rather than exact numbers.

The TGI is the concentration at which net growth stops. High values mean less potent growth arrest, low ones more potent growth arrest. For `CC12CC(OC(=O)[C@]1(C)O)[C@@H]([C@]1(O)CC[C@H]3[C@@H]4C[C@H]5O[C@]56[C@@H](O)C=CC(=O)[C@]6(C)[C@H]4CC[C@@]31C)C2` (stereo partly drawn), the TGI in [1] was determined as 10.1 µM; in [2] it was 15.2 µM; in assay [3], 68.5 µM; in [4], 24.4 µM; in assay [5] it was 17.8 µM; in [6], 20.2 µM. The figures for the total growth inhibition concentration (TGI) in assay [7], in assay [8] and in assay [9] were 28.4 µM, 37.2 µM and 16.8 µM, respectively.
By GI50 is commonly meant the concentration at which growth is held to half of that of the control. Take `CCCc1cc(=O)n2c(C(=O)Nc3ccccc3OC)c(C(=O)Nc3ccc(F)cc3)sc2n1`: the GI50 in [1] was 2.91 µM; in assay [2] it was 44.5 µM; in assay [10], 59.5 µM; in [3], 39.2 µM; in [4] it was 5.03 µM; in [5], 48.6 µM. Further, the GI50 in assay [6] was 26 µM; in assay [7], 20.2 µM; in assay [8], 4.24 µM; in assay [9], 23.4 µM. The TGI was 10.2 µM in assay [1]; more than 160 µM in assay [2]; more than 160 µM in assay [10]; more than 160 µM in assay [3]; 15.3 µM in assay [4]; more than 160 µM in [5]. In addition, the TGI amounted to 64.3 µM in assay [6], 60.2 µM in assay [7], 22.7 µM in [8] and 81.8 µM in assay [9].
As to `COc1ccc2c(c1)C(C)Cc1c(Cl)nc(C)nc1N2C` (stereo not drawn), the GI50 in [1] was 3.94 µM; in [2] it was 2.2 µM; in assay [10], 12.4 µM; in [3], 1.7 µM; in [4] it was 4.94 µM; in assay [5], 2.55 µM. Further, the GI50 in assay [6] was 4.55 µM; in assay [7], 13.1 µM; in assay [8], 0.665 µM; in assay [9], 3.99 µM. Moreover, the TGI is 32 µM in assay [1]; 8.92 µM in [2]; 37.8 µM in assay [10]; 16.7 µM in [3]; more than 100 µM in [4]; 11.2 µM in assay [5]. Also, the TGI turned out to be 38.8 µM in assay [6], 37.8 µM in [7], 36.2 µM in [8] and 36.1 µM in assay [9].
`FC(F)(F)c1ccc(-c2cnc(Cl)nc2NCc2cc(C(F)(F)F)cc(C(F)(F)F)c2)cc1`: the GI50 was 3.67 µM in assay [1]; 3.26 µM in [2]; 2.84 µM in assay [10]; 2.98 µM in [3]; 2.94 µM in assay [4]; 5.19 µM in [5]. Moreover, the GI50 was 3.16 µM in [6], 2.18 µM in assay [7], 3.34 µM in assay [8] and 2.51 µM in assay [9]. In addition, the TGI in [1] was more than 100 µM; in assay [2], more than 100 µM; in assay [10] it was 7.56 µM; in assay [3], more than 100 µM; in [4], more than 100 µM; in [5], more than 100 µM. The TGI in [6] was more than 100 µM; in [7] it was 7.28 µM; in [8] it was more than 100 µM; in assay [9] it was more than 100 µM.
As to `CSC1(SC2=NCCN2)SC2(NCCN2)S1`, the TGI in [1] is 14.2 µM; in assay [2], 38.3 µM; in assay [10], 34.3 µM; in assay [3], more than 91.6 µM; in assay [4] it was 44.6 µM; in [5], 35 µM. Also, the TGI in assay [6] came out at 18.6 µM; in assay [7] it was 46.6 µM; in assay [8], 32.7 µM; in [9] it was 32.2 µM.
Take `C/C=C/[C@@H]1OC(=O)C2=C[C@@H](O)[C@@H](/C=C/C)O[C@H]21`: the GI50 in [1] was 2.53 µM; in assay [2], 2.09 µM; in [10], 1.73 µM; in assay [3] it was 19.2 µM; in assay [4], 6.96 µM; in assay [5], 9.03 µM. Besides, the GI50 in [6] is 1.96 µM; in [7], 17.7 µM; in assay [8] it was 13.9 µM; in [9] it was 3.05 µM. For the same compound, the TGI in assay [1] was 8.36 µM; in assay [2] it was 5.89 µM; in assay [10] it was 5.56 µM; in assay [3] it was more than 56.2 µM; in assay [4], 27.8 µM; in assay [5], 23.8 µM. Moreover, the TGI in assay [6] is 7.04 µM; in [7], 33 µM; in assay [8] it was 28.9 µM; in assay [9], more than 35.7 µM.
With `Cc1c(Cl)cccc1NC1=C(Cl)C(=O)N(Cc2ccccc2)C1=O`, the GI50 in assay [1] is 1.9 µM; in assay [3], 5 µM; in assay [4] it was 15.5 µM; in assay [5], 11.7 µM; in assay [6], 2.87 µM; in [8] it was 6.15 µM. Further, in assay [9], the GI50 was 6.96 µM. In addition, the TGI in assay [1] came out at 11 µM; in assay [3], 20.9 µM; in assay [4], 34 µM; in assay [5] it was 23.9 µM; in assay [6], 15.3 µM; in [8], 19.7 µM. The compound further came in with a TGI in [9] of 24.4 µM.
Turning to `COc1cc(C2CC(c3ccc(N(C)C)cc3)=NN2C(C)=O)cc(OC)c1OC` (stereo not drawn), the GI50 in assay [1] is 2.36 µM; in assay [2], 0.909 µM; in assay [10] it was more than 100 µM; in assay [3], 3.78 µM; in [4] it was 10.9 µM; in assay [5], 0.804 µM. Further, the GI50 in [6] was 14.3 µM; in [7], more than 69.5 µM; in assay [8], 1.48 µM; in [9] it was 3.59 µM. For the same compound, the TGI in assay [1] was more than 78 µM; in [2], more than 39.5 µM; in [10], more than 100 µM; in assay [3] it was more than 100 µM; in [4] it was more than 100 µM; in assay [5], 17.6 µM. For the same compound, the TGI in assay [6], in assay [7], in [8] and in [9] was more than 100 µM in each case.
With `CCOC(=O)c1nc(Nc2ccc(Cl)cc2)c2ccccc2n1`, the GI50 in assay [1] is 10.4 µM; in assay [3], 13.2 µM; in [4] it was 11.3 µM; in [5], 7.19 µM; in assay [6], 8.11 µM; in assay [7], 13 µM. Further, the GI50 was 10 µM in assay [8] and 8.87 µM in assay [9]. The TGI was 21.4 µM in assay [1]; 22.9 µM in assay [3]; 47.9 µM in [4]; 13.8 µM in [5]; 19.3 µM in [6]; 30.6 µM in assay [7]. The values for the TGI in [8] and in assay [9] were 20.5 µM and 18.8 µM, respectively.
With `Cc1cn2c(/C=N/Nc3ccccn3)c(-c3ccc(Cl)c([N+](=O)[O-])c3)nc2s1`, the GI50 in [1] was 18.5 µM; in assay [3], 11.3 µM; in assay [5] it was 43.9 µM; in [6] it was 15.3 µM; in assay [7] it was 21.3 µM; in assay [8], 14.1 µM. Also, the GI50 in assay [9] was 13.1 µM. The TGI in assay [1] is more than 50 µM; in assay [3] it was 30.9 µM; in assay [5], more than 50 µM; in assay [6], 47.3 µM; in assay [7], more than 50 µM; in assay [8], 46.3 µM. The compound further came in with a TGI in assay [9] of more than 50 µM.
Turning to `CCC(=O)N(O)C(C)(C)C`, the TGI in [1], in assay [2], in assay [10], in [4], in [5] and in assay [6] was more than 100 µM in each case. Besides, the TGI in assay [7], in [8] and in assay [9] was more than 100 µM in each case.
Consider `CS/C(=N\c1nccs1)NC(=O)c1cccc(Cl)c1`, for which the TGI in assay [1], in assay [2], in assay [10], in assay [4], in assay [5] and in [6] was more than 100 µM throughout. Moreover, the TGI in assay [7], in assay [8] and in assay [9] was more than 100 µM in each case.
Regarding `C=CCNC(=O)NCCCC(NC(C)=O)C(=O)NCc1ccccc1` (stereo not drawn), the TGI in assay [1], in assay [2], in assay [10], in assay [4], in assay [5] and in [6] was more than 100 µM in each case. Besides, the TGI in assay [7], in [8] and in assay [9] was more than 100 µM throughout.
With `CC(=O)O[C@H]1CC[C@@]2(C)[C@@H](CC[C@@H]3[C@@H]2CC[C@]2(C)C=C(C=O)C[C@@H]32)C1`, the GI50 in assay [1] was 19.5 µM; in assay [2], 8.32 µM; in assay [10], 3.64 µM; in [3] it was 5.35 µM; in assay [4], 3.48 µM; in assay [5], 3.56 µM. For the same compound, the GI50 in assay [7] is 12.2 µM; in [9], 18.8 µM. The TGI in [1] is 37.3 µM; in [2], 25.6 µM; in assay [10], 12.6 µM; in assay [3], more than 100 µM; in [4], 13.8 µM; in assay [5], 14.4 µM. Besides, the TGI in [7] was 26.3 µM; in assay [9], 35.3 µM.
With `COc1cccc2nc3cc(C)c(C)cc3nc12`, the TGI in assay [1], in assay [2], in assay [10], in assay [4], in [5] and in assay [6] was more than 100 µM each time. Moreover, the TGI in assay [7], in [8] and in assay [9] was more than 100 µM each time.
In the case of `COC(=O)C1=C(OC(=O)c2ccc(Cl)cc2)C(C(=O)OC)[C@@]2(O)[C@@H](C(=O)OC)C(c3ccccc3Cl)C[C@@H]1[C@@H]2C(=O)OC` (stereo partly drawn), the GI50 in [1] is 7.27 µM; in assay [2], 6.57 µM; in [10], 4.85 µM; in assay [3] it was 3.41 µM; in assay [5] it was 5.19 µM; in assay [6] it was 8 µM. The GI50 in assay [7] was 3.52 µM; in [8], 2.21 µM; in [9] it was 4.03 µM. Also, the TGI was more than 100 µM in assay [1]; more than 100 µM in assay [2]; 31.7 µM in assay [10]; more than 100 µM in assay [3]; 26.5 µM in assay [5]; more than 100 µM in assay [6]. Moreover, the TGI in [7] worked out at 22.4 µM; in assay [8], 4.81 µM; in assay [9], 24 µM.
Turning to `COC(=O)c1cc(-c2cccn2C)c2c(c1C(=O)OC)c1ccccc1n2C`, the TGI in [1], in assay [2], in assay [10], in assay [4], in assay [5] and in [6] was more than 100 µM each time. Further, the TGI in assay [7], in [8] and in [9] was more than 100 µM in each case.
For `O=c1[nH]c(-c2ccc(-c3nc4cc([N+](=O)[O-])ccc4c(=O)[nH]3)cc2)nc2cc([N+](=O)[O-])ccc12`, the TGI in assay [1], in [2], in assay [10], in assay [4], in [5] and in assay [6] was more than 100 µM each time. For the same compound, the TGI in [7], in assay [8] and in assay [9] was more than 100 µM in each case.
As for `C=CCC(OCCOCC)c1cc(OCCOCC)ccc1OC` (stereo not drawn), the TGI in assay [1], in assay [2], in [10], in [4], in [5] and in assay [6] was more than 100 µM throughout. Besides, the TGI in [7], in [8] and in [9] was more than 100 µM throughout.
Take `CCOc1ccccc1/C=N\N=C(\N)N/N=C/c1ccccc1OCC`: the GI50 in assay [1] is 4.42 µM; in [2] it was 2.5 µM; in assay [3] it was 2.62 µM; in assay [4], 3.68 µM; in [5], 1.63 µM; in [6], 6.16 µM. The GI50 in assay [7] was 4.37 µM; in [8], 0.914 µM; in [9], 2.97 µM. For the same compound, the TGI in assay [1], in assay [2], in assay [3], in assay [4], in assay [5] and in [6] was more than 100 µM throughout. Besides, the TGI in assay [7], in [8] and in assay [9] was more than 100 µM each time.
